# According to patent publication US6780608B1, “Human type 3 ryanodine receptor protein and DNA molecules coding therefor” (priority 1997, dated 2004):
# “Also recorded” adds a separate entry of the source.
# Legend:
# [1] = test system: chimeric RyR from rabbit RyR2 and human RyR3; assay: Intracellular calcium signal (fluo-3) in dyspedic myotubes injected with chimeric human RyR3 cDNA; type: cell-based; settings: 1 mM caffeine, local injection; dyspedic myotubes expressing chimeric human RyR3; n=5 out of 20 reacted
# Source text: (§1) The cDNA insert was constructed from the following fragments: EcoRI(vector)/MroI(1232) obtained from IhBRR22, MroI(1232)/HindIII(2956) from IhBRR61, HindIII(2956)/BcII(3506) from IhBRR501, BcII(3506)/PmaCI(4750) from IhBRR51, PmaCI(4750)/PstI(7339) from IhBRR53, PstI(7339)/ClaI(9559) from IhBRR411, ClaI(9559)/SpeI(10569) from IhBRR79, SpeI(10569)/ApaI(11451) from IhBRR407, ApaI(11451)/EcoRI(11815) from IhBRR502, EcoRI(11815)/EcoRI(14861) from IhBRR91. The expression plasmid of the chimeric ryanodine receptor cDNA from human RyR3 and rabbit RyR2 was constructed as follows: the SalI(vector)/PmaCI(5038) fragment was rabbit RyR2 cDNA (Nakai, J. et al. FEBS Lett. 271 (1990), 169-177) and the PmaCI(4750)/NotI(vector) fragment from human RyR3-cDNA was ligated into the SalI/NotI cutting site of pCI-neo. Cultures of myotubes from RyR1-deficient (dyspedic) mice and cDNA injection are already known (Nakai, J. et al., Nature 380, (1996), 72-75). Changes in fluorescence (dimensionless random units) were measured after loading the myotubes with fluo-3 AM (Garcia, J., and Beam, K. G., J. Gen. Physiol. 103, (1994), 107-123). […] The washing solution used was normal Nager-Ringer solution of the following composition (mM): 145 NaCl, 5 KCl, 2 CaCl2, 1 MgCl2, 10 HEPES, pH 7.4 adjusted using NaOH. The temperature was 20-22° C.
# [2] = test system: non-injected dyspedic myotubes; assay: Intracellular calcium signal (fluo-3) in non-injected dyspedic myotubes; type: cell-based, mice; settings: 1 mM caffeine, n=0 out of 20 reacted
# Source text: as §1
# U373 cells = assay: Intracellular calcium (aequorin luminescence) in U373 cells; type: cell-based, human; settings: for increase in intracellular calcium after addition of ryanodine: ryanodine 100 mM as printed, U373 cells, n=2 out of 4 react, 2 out of 4 do not react
# Method: (§2) The luminescence was determined using the method recently published (Maeda, A. et al., Anal. Biochem. 242, (1996), 58-66). To do this the cells (1×10^5 cells/vessel) were transferred into the solution of the calcium assay having the following composition (mM): 140 NaCl, 5 KCl, 1.5 MgCl2, 2.5 CaCl2, 5 glucose and 10 HEPES, pH 7.4 adjusted using NaOH, including […] of coelenterazine, the intermediate substrate of aequorine, and incubated for 6 hours at 37° C. The system for measuring luminescence consisted of the spectrofluorometer CAF-110 (Jasco) (Hakamata Y. et al., FEBS Lett. 352, (1994), 206-210), which is connected to a luminescence unit PL-03 (Jasco).
# (§3) The total amount of aequorine activity was measured, after permeabilisation of the cells with digitonin, in a final concentration of […].
# H4 cells = assay: Intracellular calcium (aequorin luminescence) in H4 cells; type: cell-based, human; settings: H4 neuroglyoma cells
# Method: as §2, §3
Molecule,intracellular calcium signal as a reaction to caffeine [1],intracellular calcium signal as a reaction to caffeine [2],"increase in intracellular calcium after addition of caffeine (U373 cells; caffeine final concentration 10 mM, U373 astrocytoma cells, n=7, listed as Caffeine)",increase in calcium after addition of caffeine (H4 cells; caffeine final concentration 10 mM),increase in intracellular calcium after addition of ryanodine (U373 cells),increase in intracellular calcium after addition of ryanodine (U373 cells; listed as Ryanodine),increase in calcium after addition of ryanodine (H4 cells; ryanodine 100 mM [sic])
Cn1c(=O)c2c(ncn2C)n(C)c1=O [caffeine],reacts,do not react; also recorded: no reaction whatsoever,no effect,not to caffeine,,,
ryanodine,,,,,reacted,triggers temporary calcium fluctuations,reacted
